Assay results taken from patent publication US7528138B2, “Pyrazolo[1,5-a]pyrimidines useful as inhibitors of protein kinases” (Vertex Pharmaceuticals Incorporated, priority 2004, dated 2009).

How the values were obtained:
Assay type in all cases: biochemical
Itk = target: T1, Itk (Homo sapiens, UniProt Q08881); test: ITK Inhibition Assay (Radiometric), radioactive-phosphate incorporation; conditions: enzyme inhibition data (Ki), Table 11; radiometric or UV assay not stated
T1 sequence (Q08881 1-620): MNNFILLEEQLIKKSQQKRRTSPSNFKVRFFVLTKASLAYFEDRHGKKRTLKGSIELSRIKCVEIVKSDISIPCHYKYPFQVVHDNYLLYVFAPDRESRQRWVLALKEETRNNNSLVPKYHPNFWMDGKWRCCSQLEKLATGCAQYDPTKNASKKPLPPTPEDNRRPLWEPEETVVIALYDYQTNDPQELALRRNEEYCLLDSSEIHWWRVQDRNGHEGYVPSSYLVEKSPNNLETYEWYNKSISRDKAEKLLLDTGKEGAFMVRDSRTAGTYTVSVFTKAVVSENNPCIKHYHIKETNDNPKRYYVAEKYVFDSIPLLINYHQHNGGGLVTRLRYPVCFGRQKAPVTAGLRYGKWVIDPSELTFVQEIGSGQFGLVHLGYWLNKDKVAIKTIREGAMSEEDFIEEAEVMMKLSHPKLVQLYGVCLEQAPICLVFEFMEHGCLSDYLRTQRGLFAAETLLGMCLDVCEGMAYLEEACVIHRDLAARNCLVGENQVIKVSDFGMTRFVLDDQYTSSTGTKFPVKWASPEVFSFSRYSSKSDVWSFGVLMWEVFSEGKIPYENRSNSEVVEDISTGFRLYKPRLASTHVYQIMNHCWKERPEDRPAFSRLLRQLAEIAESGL
In short: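 Radiometric 33P incorporation into SAM68 peptide (D332-443) with filter capture and scintillation counting; 10 min pre-incubation then 10 min reaction at 25° C. IC50 format: 30 nM Itk, 15 μM ATP, 2 μM peptide, HEPES pH 7.5. Ki(app) format: 50 nM Itk, 7.5 μM ATP, 3 μM peptide, MOPS pH 7.0.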

JAK3 = target: T2, JAK3 (Homo sapiens, UniProt P52333); test: JAK3 Inhibition Assay, 33P incorporation; conditions: enzyme inhibition data (Ki), Table 11
T2 sequence (P52333 1-1124): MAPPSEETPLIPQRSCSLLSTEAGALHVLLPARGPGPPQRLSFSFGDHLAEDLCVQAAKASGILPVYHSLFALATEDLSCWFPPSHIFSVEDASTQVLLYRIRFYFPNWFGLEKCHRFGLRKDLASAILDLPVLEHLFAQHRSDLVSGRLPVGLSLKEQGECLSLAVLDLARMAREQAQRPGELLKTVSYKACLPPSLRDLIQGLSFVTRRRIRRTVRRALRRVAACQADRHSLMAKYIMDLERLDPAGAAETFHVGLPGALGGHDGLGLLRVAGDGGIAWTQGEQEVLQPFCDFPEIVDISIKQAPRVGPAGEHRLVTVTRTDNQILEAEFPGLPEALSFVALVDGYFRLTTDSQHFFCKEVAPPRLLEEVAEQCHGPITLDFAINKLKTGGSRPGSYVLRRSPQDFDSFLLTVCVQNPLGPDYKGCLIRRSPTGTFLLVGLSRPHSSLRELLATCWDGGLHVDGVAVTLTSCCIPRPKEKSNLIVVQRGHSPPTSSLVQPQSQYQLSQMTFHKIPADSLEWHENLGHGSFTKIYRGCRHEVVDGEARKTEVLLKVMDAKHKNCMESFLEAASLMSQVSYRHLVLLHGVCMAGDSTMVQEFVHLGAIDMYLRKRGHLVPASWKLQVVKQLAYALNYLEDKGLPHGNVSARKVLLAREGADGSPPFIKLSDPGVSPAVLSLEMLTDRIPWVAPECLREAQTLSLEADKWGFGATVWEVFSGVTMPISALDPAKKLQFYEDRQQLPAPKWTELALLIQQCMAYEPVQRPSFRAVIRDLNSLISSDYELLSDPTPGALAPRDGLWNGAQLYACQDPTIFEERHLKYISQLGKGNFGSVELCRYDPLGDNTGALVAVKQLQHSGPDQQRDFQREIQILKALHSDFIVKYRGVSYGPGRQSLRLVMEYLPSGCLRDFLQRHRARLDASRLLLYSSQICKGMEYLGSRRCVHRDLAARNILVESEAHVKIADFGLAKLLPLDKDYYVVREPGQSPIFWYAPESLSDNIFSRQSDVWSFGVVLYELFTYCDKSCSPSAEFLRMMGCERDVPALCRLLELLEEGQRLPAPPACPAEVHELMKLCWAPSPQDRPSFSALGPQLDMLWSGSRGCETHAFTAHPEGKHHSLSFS
In short: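 Recombinant JAK3 at 1 nM in HEPES pH 7.4 buffer with 10 mM MgCl2, 1 mM DTT and 0.01% BSA. Substrates were 5 μM ATP (200 uCi/μmole) and 1 μM poly(Glu)4Tyr, reacted 20 min at 25 °C. Stopped with TCA, and 33P incorporation counted on glass fiber filters.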

c-Met = c-Met (Homo sapiens, UniProt P08581); test: c-Met Inhibition Assay, coupled enzyme system; conditions: enzyme inhibition data (Ki), Table 11
Sequence of c-Met (P08581 25-1390): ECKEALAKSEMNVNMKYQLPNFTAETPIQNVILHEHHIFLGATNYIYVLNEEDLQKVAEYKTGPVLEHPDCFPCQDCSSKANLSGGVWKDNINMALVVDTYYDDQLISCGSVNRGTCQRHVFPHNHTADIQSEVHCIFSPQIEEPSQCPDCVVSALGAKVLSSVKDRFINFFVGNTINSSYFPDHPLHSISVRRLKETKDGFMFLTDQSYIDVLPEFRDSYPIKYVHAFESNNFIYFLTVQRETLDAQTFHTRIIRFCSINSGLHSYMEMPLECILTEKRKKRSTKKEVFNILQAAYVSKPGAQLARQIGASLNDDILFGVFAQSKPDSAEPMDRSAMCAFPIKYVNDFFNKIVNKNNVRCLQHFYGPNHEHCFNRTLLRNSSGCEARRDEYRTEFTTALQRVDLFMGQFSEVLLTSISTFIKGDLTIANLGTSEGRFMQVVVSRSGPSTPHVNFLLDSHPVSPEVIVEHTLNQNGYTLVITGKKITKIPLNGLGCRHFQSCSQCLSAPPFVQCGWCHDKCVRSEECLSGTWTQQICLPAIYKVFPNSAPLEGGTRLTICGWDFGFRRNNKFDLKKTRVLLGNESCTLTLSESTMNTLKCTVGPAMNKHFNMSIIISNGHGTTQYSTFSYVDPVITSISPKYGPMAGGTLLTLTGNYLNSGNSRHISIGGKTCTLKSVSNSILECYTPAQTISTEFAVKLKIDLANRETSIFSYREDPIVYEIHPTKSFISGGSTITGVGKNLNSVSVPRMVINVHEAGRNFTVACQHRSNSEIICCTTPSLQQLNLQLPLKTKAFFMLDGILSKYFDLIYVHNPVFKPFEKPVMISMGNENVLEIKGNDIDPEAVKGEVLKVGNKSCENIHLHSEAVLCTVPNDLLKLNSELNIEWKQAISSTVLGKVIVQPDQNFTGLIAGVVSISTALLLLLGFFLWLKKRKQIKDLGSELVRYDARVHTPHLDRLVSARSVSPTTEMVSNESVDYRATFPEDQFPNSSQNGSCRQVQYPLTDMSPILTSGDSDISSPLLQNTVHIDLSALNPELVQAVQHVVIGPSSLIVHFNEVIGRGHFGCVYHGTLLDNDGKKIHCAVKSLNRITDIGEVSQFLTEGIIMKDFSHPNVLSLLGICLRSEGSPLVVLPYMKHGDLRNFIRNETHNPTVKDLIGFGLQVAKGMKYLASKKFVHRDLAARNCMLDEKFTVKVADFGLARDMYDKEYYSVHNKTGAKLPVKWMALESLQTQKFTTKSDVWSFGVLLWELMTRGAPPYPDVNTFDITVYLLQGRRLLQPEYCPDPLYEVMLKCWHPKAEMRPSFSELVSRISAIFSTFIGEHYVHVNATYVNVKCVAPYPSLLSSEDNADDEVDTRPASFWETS
In short: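 Pyruvate kinase/lactate dehydrogenase-coupled NADH assay in HEPES pH 7.5 with 80 nM c-Met, 200 μM ATP and 10 μM polyGluTyr at 30° C. Compound (0.006–12.5 μM final, 12-point) preincubated 10 min before ATP start; rates over 10 min gave Ki.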

Compound	Ki (Itk) [µM]	Ki (JAK3) [µM]	Ki (c-Met) [µM]
Nc1nn2cc(-c3ccnc(N4CCN(c5cnccn5)CC4)c3)cnc2c1-c1ccccn1 [Compound V-255]	0.5 to 5	> 5	0.5 to 5
Cc1cnc2c(-c3cc(N4CCCC(C(N)=O)C4)ncn3)c(N)nn2c1 (stereo not drawn) [Compound V-309]	0.5 to 5	< 0.5	< 0.5
COc1cccc(OC)c1-c1cnc2c(-c3ccccn3)c(N)nn2c1 [Compound V-3]	0.5 to 5	> 5	0.5 to 5
Nc1nn2cc(-c3ccc(N4CCN(CCO)CC4)nc3)cnc2c1-c1ccccn1 [Compound V-148]	< 0.5	0.5 to 5	< 0.5
COCCNc1cc(-c2cnc3c(-c4ccccn4)c(N)nn3c2)ccn1 [Compound V-245]	0.5 to 5	> 5	< 0.5
Cc1cnc2c(-c3cc(NC(C)CO)ncn3)c(N)nn2c1 (stereo not drawn) [Compound V-283]	0.5 to 5	0.5 to 5	0.5 to 5
Nc1nn2cc(-c3cccnc3N3CCOCC3)cnc2c1-c1ccccn1 [Compound V-257]	0.5 to 5	> 5	0.5 to 5
Nc1nn2cc(-c3ccc(N4CCC(N5CCCC5)CC4)nc3)cnc2c1-c1ccccn1 [Compound V-164]	< 0.5	> 5	< 0.5
Nc1nn2cc(-c3ccncn3)cnc2c1C(=O)N1CCC(O)C1 (stereo not drawn) [Compound V-44]	0.5 to 5	> 5	0.5 to 5
Nc1nn2cc(NC(=O)c3ccccc3)cnc2c1-c1ccccn1 [Compound V-235]	0.5 to 5	> 5	0.5 to 5
Nc1nn2cc(-c3cccc(C(=O)N4CCC(N)C4)n3)cnc2c1-c1ccccn1 (stereo not drawn) [Compound V-119]	0.5 to 5	0.5 to 5	< 0.5
Nc1nn2cc(N3CCCCC3)cnc2c1-c1ccccn1 [Compound V-59]	0.5 to 5	> 5	0.5 to 5
Nc1nn2cc(C(=O)NCc3cccnc3)cnc2c1-c1ccccn1 [Compound V-200]	0.5 to 5	> 5	0.5 to 5
Nc1nn2cc(-c3ccccc3C(F)(F)F)cnc2c1-c1ccccn1 [Compound V-5]	0.5 to 5	> 5	0.5 to 5
Nc1nn2cc(-c3ccnc(N4CCN(CCO)CC4)c3)cnc2c1-c1ccccn1 [Compound V-248]	0.5 to 5	0.5 to 5	< 0.5
CCN(CC)CCCc1cnc2c(-c3ccccn3)c(N)nn2c1 [Compound V-319]	0.5 to 5	> 5	< 0.5
Nc1nn2cc(-c3ccncn3)cnc2c1C(=O)N1CCC[C@H]1CO [Compound V-39]	0.5 to 5	> 5	0.5 to 5
CN(CCN)C(=O)c1cccc(-c2cnc3c(-c4ccccn4)c(N)nn3c2)n1 [Compound V-120]	< 0.5	0.5 to 5	< 0.5
Nc1nn2cc(CCCNCC3CCCO3)cnc2c1-c1ccccn1 (stereo not drawn) [Compound V-329]	0.5 to 5	> 5	< 0.5
CNC(=O)c1cccc(-c2cnc3c(-c4ccccn4)c(N)nn3c2)n1 [Compound V-118]	0.5 to 5	> 5	< 0.5
COC(=O)C1CCN(c2ncccc2-c2cnc3c(-c4ccccn4)c(N)nn3c2)CC1 [Compound V-260]	0.5 to 5	> 5	0.5 to 5
Nc1nn2cc(-c3ccc(N4CCOCC4)nc3)cnc2c1-c1ccccn1 [Compound V-144]	0.5 to 5	> 5	< 0.5
CCOC(=O)c1c(N)nn2cc(CCCOC(C)=O)cnc12 [Compound V-48]	0.5 to 5	> 5	0.5 to 5
Nc1nn2cc(-c3ccccc3OC(F)F)cnc2c1-c1ccccn1 [Compound V-19]	0.5 to 5	> 5	0.5 to 5
CCN(CC)CCN(C)CCCc1cnc2c(-c3ccccn3)c(N)nn2c1 [Compound V-321]	0.5 to 5	> 5	0.5 to 5
CCOC(=O)C1CCN(c2cc(-c3cnc4c(-c5ccccn5)c(N)nn4c3)ccn2)CC1 [Compound V-253]	0.5 to 5	> 5	0.5 to 5
CN1CCC(N(C)C(=O)c2ccc(-c3cnc4c(-c5ccccn5)c(N)nn4c3)nc2)CC1 [Compound V-61]	< 0.5	0.5 to 5	< 0.5
Nc1ccccc1-c1cnc2c(-c3ccccn3)c(N)nn2c1 [Compound V-20]	0.5 to 5	> 5	0.5 to 5

Other lines, results leading:

Ki (Itk) [µM]	Ki (JAK3) [µM]	Ki (c-Met) [µM]	Compound
< 0.5	0.5 to 5	< 0.5	Nc1nn2cc(-c3ccc(C(=O)N4CCC(N5CCCC5)CC4)cn3)cnc2c1-c1ccccn1 [Compound V-84]
0.5 to 5	> 5	0.5 to 5	Nc1nn2cc(CCCNC3CC3)cnc2c1-c1ccccn1 [Compound V-322]
0.5 to 5	> 5	0.5 to 5	CC(C)(C)OC(=O)N1CCC(CNC(=O)c2cnc3c(-c4ccccn4)c(N)nn3c2)CC1 [Compound V-201]
0.5 to 5	> 5	0.5 to 5	CN(CCc1ccccn1)c1ccc(-c2cnc3c(-c4ccccn4)c(N)nn3c2)cn1 [Compound V-168]
0.5 to 5	> 5	0.5 to 5	Nc1nn2cc(-c3ccncn3)cnc2c1C(=O)N1CCCC1 [Compound V-45]
0.5 to 5	0.5 to 5	0.5 to 5	CC(=O)c1ccccc1-c1cnc2c(-c3ccccn3)c(N)nn2c1 [Compound V-6]
0.5 to 5	> 5	0.5 to 5	CCN(C)CCCc1cnc2c(-c3ccccn3)c(N)nn2c1 [Compound V-318]
0.5 to 5	> 5	< 0.5	CCN(CCO)C(=O)c1cccc(-c2cnc3c(-c4ccccn4)c(N)nn3c2)n1 [Compound V-128]
< 0.5	0.5 to 5	< 0.5	CCN(CCO)C(=O)c1ccc(-c2cnc3c(-c4ccccn4)c(N)nn3c2)nc1 [Compound V-99]
0.5 to 5	> 5	< 0.5	COc1ccc(-c2cnc3c(-c4ccccn4)c(N)nn3c2)cn1 [Compound V-50]
0.5 to 5	> 5	0.5 to 5	Nc1nn2cc(CCCN3CCCCC3)cnc2c1-c1ccccn1 [Compound V-312]
0.5 to 5	> 5	0.5 to 5	Nc1nn2cc(-c3ccccc3F)cnc2c1-c1ccccn1 [Compound V-13]
0.5 to 5	> 5	0.5 to 5	CN(C)CCN(C)C(=O)c1ccc(-c2cnc3c(Cc4ccccc4)c(N)nn3c2)nc1 [Compound V-211]
